Assay results published in patent US20050272752A1, “Complexes of E-2-Methoxy-N-(3-{4-[3-methyl-4-(6-methyl-pyridin-3-yloxy)-phenylamino]-quinazolin-6-yl}-allyl)-acetamide and methods of preparing same” (Pfizer Inc, priority 2004, published 2005).

What was measured:
[1] = tested on: another carcinoma which does not express the EGF receptor; conditions: cited from earlier work
[2] = tested on: transplanted human mammary carcinoma which expresses epidermal growth factor receptor tyrosine kinase (EGFR); conditions: EGFR-expressing carcinoma in athymic nude mice; cited from earlier work
[3] = hygroscopic stability of the sesquisuccinate complex; format: physicochemical; conditions: solid complex; relevant to weight changes during manufacture of capsules or tablets

hygroscopic stability [3]	Structure (SMILES)	growth of carcinoma not expressing the EGF receptor [1]	growth of transplanted human mammary carcinoma [2]
–	O=CN/C=C/c1cc(O)ccc1O [erbstatin]	without effect on the growth	selectively attenuates the growth
substantially hygroscopically stable	COCC(=O)NC/C=C/c1ccc2ncnc(Nc3ccc(Oc4ccc(C)nc4)c(C)c3)c2c1 [sesquisuccinate complex, E-2-Methoxy-N-(3-{4-[3-methyl-4-(6-methyl-pyridin-3-yloxy)-phenylamino]-quinazolin-6-yl}-allyl)-acetamide]	–	–
